pIC50: −log10 of the molar value. Where a name gives a salt, the structure may show the parent alone.
Key:
Format in all cases: biochemical
human FLT4 = molecular target: T1, human FLT4 (Homo sapiens, UniProt P35916); assay: FLT4 kinase assay (DELFIA enzyme inhibition); conditions: read-out: FLT4 IC50
T1 construct: a construct expressing the human FLT4 (789-1207) with an amino terminal GST tag; host or cells: Sf9 insect cells (baculovirus)
Outline: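 Read-out is DELFIA: biotinylated MET Tyr1253-derived peptide captured on Neutravidin, phosphotyrosine detected by Eu-antibody time-resolved fluorescence. Enzyme is Sf9-expressed GST-FLT4 (789-1207), reacting 30 min at room temperature before EDTA stop. IC50 derived from plotted % inhibition.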

human FLT3 = molecular target: T2, human FLT3 (Homo sapiens, UniProt P36888); assay: FLT3 kinase assay (DELFIA enzyme inhibition)
T2 construct: a construct expressing the human FLT3 (564-993) with an amino terminal GST tag; host or cells: Sf9 insect cells (baculovirus)
T2 sequence (P36888 564-993): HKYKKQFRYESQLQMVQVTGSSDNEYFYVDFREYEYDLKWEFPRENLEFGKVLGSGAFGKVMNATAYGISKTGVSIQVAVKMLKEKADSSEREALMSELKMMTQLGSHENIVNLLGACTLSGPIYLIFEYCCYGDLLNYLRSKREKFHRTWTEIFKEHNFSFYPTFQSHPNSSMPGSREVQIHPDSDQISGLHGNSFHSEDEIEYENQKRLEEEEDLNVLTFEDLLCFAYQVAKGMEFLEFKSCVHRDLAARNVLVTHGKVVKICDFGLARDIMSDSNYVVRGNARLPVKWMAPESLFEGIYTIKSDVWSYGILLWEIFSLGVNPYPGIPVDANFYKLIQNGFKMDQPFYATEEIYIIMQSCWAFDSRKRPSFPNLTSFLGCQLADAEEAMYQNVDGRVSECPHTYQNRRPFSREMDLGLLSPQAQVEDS
Experimental: A GST-kinase fusion protein of 70 KDa was produced using sf9 baculovirus expression system, with a construct expressing the human FLT3 (564-993) with an amino terminal GST tag. The protein was purified by one-step affinity chromatography using glutathione-agarose.
FLT3 enzyme activity is determined using a Dissociation Enhanced Lanthanide Fluorescent Immunoassay (DELFIA) with a peptide substrate derived from the Gastrin Precursor (Tyr 87) peptide […] with a core sequence: EAYGW.
The amount of phosphorylated peptide produced is detected by means of a phospho-Tyrosine specific Europium-labelled antibody using Time-Resolved Fluorescence at Excitation 360-35 nm and Emission 620-35 nm.
Assay reactions are set up in a 25 uL final volume on a 96 well plate. […] The reaction is allowed to proceed for 30 minutes at room temperature before stopping with 100 μL Stop solution comprising of 100 mM EDTA, 1×BSA blocker in TBS (Perbio) and 0.05% Surfact-Amps20 (Perbio).
The stopped reaction is transferred to a black 96-well Neutravidin-coated plate (Perbio) and incubated for 30 minutes to capture the biotinylated peptide substrate. After washing wells 3 times with 200 uL TBS/T buffer, Anti-Phospho-Tyr-100 antibody labelled with Eu—N1 (Perkin Elmer AD0159) is added to all wells for 60 minutes at room temperature. After a repeat washing step, DELFIA Enhancement solution (Perkin Elmer) is added to all wells for 5 minutes and the fluorescence measured on a plate reader Analyst HT (Molecular Devices).
The % inhibition of the activity is calculated and plotted in order to determine the concentration of test compound required to inhibit 50% of the enzyme activity (IC50).

human Aurora A = molecular target: T3, human Aurora A (Homo sapiens, UniProt O14965); assay: Aurora A kinase assay (DELFIA enzyme inhibition); conditions: read-out: Aurora A IC50
T3 construct: Histidine tag (N); host or cells: Sf9 insect cells (baculovirus)
T3 sequence (O14965 1-403): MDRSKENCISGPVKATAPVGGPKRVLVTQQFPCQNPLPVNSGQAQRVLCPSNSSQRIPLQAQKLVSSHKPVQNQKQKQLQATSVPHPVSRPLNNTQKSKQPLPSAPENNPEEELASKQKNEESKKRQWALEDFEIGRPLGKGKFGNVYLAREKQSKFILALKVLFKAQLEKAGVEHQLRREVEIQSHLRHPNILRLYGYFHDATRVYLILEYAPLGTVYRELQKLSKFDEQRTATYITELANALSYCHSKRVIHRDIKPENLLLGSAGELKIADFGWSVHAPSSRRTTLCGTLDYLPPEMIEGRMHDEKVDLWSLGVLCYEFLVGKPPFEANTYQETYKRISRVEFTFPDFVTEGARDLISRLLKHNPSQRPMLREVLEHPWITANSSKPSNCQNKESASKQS
Outline: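 DELFIA read-out (time-resolved Eu fluorescence, 620 nm emission) after Neutravidin capture of biotinylated peptide substrate and antibody detection. Reaction: Ni-agarose-purified Aurora A, 30 min at room temperature, stopped with 100 mM EDTA.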

T1 sequence (P35916 789-1207): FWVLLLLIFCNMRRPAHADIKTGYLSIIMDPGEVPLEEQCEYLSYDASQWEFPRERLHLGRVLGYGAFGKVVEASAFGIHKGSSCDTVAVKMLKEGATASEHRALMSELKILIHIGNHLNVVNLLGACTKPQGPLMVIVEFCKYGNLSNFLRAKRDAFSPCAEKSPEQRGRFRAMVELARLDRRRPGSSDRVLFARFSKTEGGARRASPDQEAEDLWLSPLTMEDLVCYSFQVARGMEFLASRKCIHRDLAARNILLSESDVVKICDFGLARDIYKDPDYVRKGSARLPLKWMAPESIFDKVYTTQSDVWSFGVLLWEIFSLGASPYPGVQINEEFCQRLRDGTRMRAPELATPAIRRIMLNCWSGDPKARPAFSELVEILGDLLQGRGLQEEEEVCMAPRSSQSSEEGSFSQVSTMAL

pIC50 (human FLT4) | pIC50 (human FLT3) | pIC50 (human Aurora A) | SMILES
> 5.00 | > 5.00 | > 5.00 | NC(=O)c1nc(-c2ccccc2F)oc1-c1ccc(N2CCNCC2)cc1 [Example G-4, 2-(2-fluorophenyl)-5-(4-(piperazin-1-yl)phenyl)oxazole-4-carboxamide]
> 5.00 | > 5.00 | > 5.00 | CN1CCN(c2ccc(-c3oc(-c4c(F)cccc4F)nc3C(N)=O)cc2)CC1 [Example H-1, 2-(2,6-difluorophenyl)-5-(4-(4-methylpiperazin-1-yl)phenyl)oxazole-4-carboxamide]
> 5.00 | > 5.00 | > 5.00 | CN1CCN(c2ccc(-c3oc(-c4c(F)cccc4F)nc3C(N)=O)cn2)CC1 [Example H-2, 2-(2,6-difluorophenyl)-5-(6-(4-methylpiperazin-1-yl)pyridin-3-yl)oxazole-4-carboxamide]
> 5.00 | > 5.00 | > 5.00 | CC(=O)N1CCN(c2ccc(-c3oc(-c4c(F)cccc4F)nc3C(N)=O)cc2)CC1 [Example I-1, 5-(4-(4-acetylpiperazin-1-yl)phenyl)-2-(2,6-difluorophenyl)oxazole-4-carboxamide]
> 5.00 | > 5.00 | > 5.00 | CC(=O)N1CCN(c2ccc(-c3oc(-c4c(F)cccc4F)nc3C(N)=O)cn2)CC1 [Example I-2, 5-(6-(4-acetylpiperazin-1-yl)pyridin-3-yl)-2-(2,6-difluorophenyl)oxazole-4-carboxamide]
> 5.00 | > 5.00 | > 5.00 | CNC(=O)N1CCN(c2ccc(-c3oc(-c4c(F)cccc4F)nc3C(N)=O)cc2)CC1 [Example J-1, 4-(4-(4-carbamoyl-2-(2,6-difluorophenyl)oxazol-5-yl)phenyl)-N-methylpiperazine-1-carboxamide]
> 5.00 | > 5.00 | > 5.00 | CNC(=O)N1CCN(c2ccc(-c3oc(-c4c(F)cccc4F)nc3C(N)=O)cn2)CC1 [Example J-2, 4-(5-(4-carbamoyl-2-(2,6-difluorophenyl)oxazol-5-yl)pyridin-2-yl)-N-methylpiperazine-1-carboxamide]
> 5.00 | > 4.00 | > 4.00 | COc1ccc(-c2oc(-c3ccccc3F)nc2C(N)=O)cc1 [Example M-3, 2-(2-fluorophenyl)-5-(4-methoxyphenyl)oxazole-4-carboxamide]
> 5.00 | > 5.00 | > 4.00 | COc1ccc(-c2oc(-c3cccc4[nH]ccc34)nc2C(N)=O)cc1 [Example M-4, 2-(1H-indol-4-yl)-5-(4-methoxyphenyl)oxazole-4-carboxamide]
> 5.00 | > 4.00 | > 5.00 | COc1ccc(-c2oc(-c3cn[nH]c3)nc2C(N)=O)cc1 [Example N-2, 5-(4-methoxyphenyl)-2-(1H-pyrazol-4-yl)oxazole-4-carboxamide]
> 4.00 | > 4.00 | > 4.00 | COc1ccc(-c2oc(-c3cccc(C(F)(F)F)c3F)nc2C(N)=O)cc1 [Example N-7, 2-(2-fluoro-3-(trifluoromethyl)phenyl)-5-(4-methoxyphenyl)oxazole-4-carboxamide]
> 5.00 | > 5.00 | > 5.00 | NC(=O)c1nc(-c2c(F)cccc2F)oc1Nc1cccc(N2CCOCC2)c1 [Example Q-2, 2-(2,6-difluorophenyl)-5-(3-morpholinophenylamino)oxazole-4-carboxamide]
> 5.00 | > 5.00 | > 5.00 | NC(=O)c1nc(-c2c(F)cccc2F)oc1Nc1cccc(OCCN2CCOCC2)c1 [Example Q-10, 2-(2,6-difluorophenyl)-5-(3-(2-morpholinoethoxy)phenylamino)oxazole-4-carboxamide]
> 5.00 | > 5.00 | > 5.00 | NC(=O)c1nc(-c2c(F)cccc2F)oc1Nc1cccc(N2CCNCC2)c1 [Example Q-12, 2-(2,6-difluorophenyl)-5-(3-(piperazin-1-yl)phenylamino)oxazole-4-carboxamide formate salt]
> 5.00 | > 5.00 | > 4.00 | NC(=O)c1nc(-c2c(F)cccc2F)oc1Nc1ccc(N2CCCCC2)cc1 [Example Q-13, 2-(2,6-difluorophenyl)-5-(4-(piperidin-1-yl)phenylamino)oxazole-4-carboxamide]
> 5.00 | > 5.00 | > 5.00 | NC(=O)c1nc(-c2c(F)cccc2F)oc1Nc1ccc(N2CCCNCC2)cc1 [Example Q-15, 5-(4-(1,4-diazepan-1-yl)phenylamino)-2-(2,6-difluorophenyl)oxazole-4-carboxamide]
> 5.00 | > 5.00 | > 5.00 | NC(=O)c1nc(-c2c(F)cccc2F)oc1Nc1ccc(OC2CCNCC2)cc1 [Example Q-16, 2-(2,6-difluorophenyl)-5-(4-(piperidin-4-yloxy)phenylamino)oxazole-4-carboxamide]
> 5.00 | > 5.00 | > 5.00 | NC(=O)c1nc(-c2c(F)cccc2F)oc1Nc1ccc(N2CCNC(=O)C2)cc1 [Example Q-19, 2-(2,6-difluorophenyl)-5-(4-(3-oxopiperazin-1-yl)phenylamino)oxazole-4-carboxamide]
> 5.00 | > 5.00 | > 5.00 | CN(C)C(=O)c1ccc(Nc2oc(-c3c(F)cccc3F)nc2C(N)=O)cc1 [Example Q-20, 2-(2,6-difluorophenyl)-5-(4-(dimethylcarbamoyl)phenylamino)oxazole-4-carboxamide]
> 5.00 | > 5.00 | > 5.00 | NC(=O)c1nc(-c2c(F)cccc2F)oc1Nc1ccc(C(=O)N2CCCCC2)cc1 [Example Q-21, 2-(2,6-difluorophenyl)-5-(4-(piperidine-1-carbonyl)phenylamino)oxazole-4-carboxamide]
> 5.00 | > 5.00 | > 5.00 | NC(=O)c1nc(-c2c(F)cccc2F)oc1Nc1ccc(C(=O)N2CCNCC2)cc1 [Example Q-22, 2-(2,6-difluorophenyl)-5-(4-(piperazine-1-carbonyl)phenylamino)oxazole-4-carboxamide]
> 5.00 | > 5.00 | > 5.00 | NC(=O)c1nc(-c2ccccc2F)oc1Nc1ccc(N2CCOCC2)cc1 [Example Q-23, 2-(2-Fluorophenyl)-5-(4-morpholinophenylamino)oxazole-4-carboxamide]
> 5.00 | > 5.00 | > 5.00 | NC(=O)c1nc(-c2c(F)cccc2F)oc1Nc1ccc(-n2ccnc2)cc1 [Example Q-24, 5-(4-(1H-imidazol-1-yl)phenylamino)-2-(2,6-difluorophenyl)oxazole-4-carboxamide]
> 5.00 | > 5.00 | > 5.00 | NC(=O)c1nc(-c2c(F)cccc2F)oc1Nc1ccc(S(N)(=O)=O)cc1 [Example Q-25, 2-(2,6-difluorophenyl)-5-(4-(sulfonamide)phenylamino)oxazole-4-carboxamide]

From US9187465B2, “Oxazole tyrosine kinase inhibitors” (Sareum Limited, priority 2007, dated 2015)
